Patent publication US20250223259A1, “PROTEASE INHIBITORS FOR TREATING OR PREVENTING CORONAVIRUS INFECTION” (Merck Sharp & Dohme LLC, priority 2022, published 2025)

Target: SARS2 coronavirus 3CL protease (Severe acute respiratory syndrome coronavirus 2 (2019-nCoV) (SARS-CoV-2), UniProt P0DTD1)
Experiment: SARS2 Coronavirus 3CL Protease Assay (FRET)
Assay type: biochemical
Settings: SARS2 3CLPro FRET assay; 5 nM enzyme, 30 min pre-incubation with compound, 15 uM peptide substrate, 4 h room temperature

Structure (SMILES)	IC50 [nM]
COC(=O)N[C@H](C(=O)N1CC[C@@H](C)C[C@H]1C(=O)N[C@@H](CCC(C)(F)F)C(=O)C(=O)NC1CC1)C(C)(C)C [Example 96, methyl ((S)-1-((2S,4R)-2-(((S)-1-(cyclopropylamino)-6,6-difluoro-1,2-dioxoheptan-3-yl)carbamoyl)-4-methylpiperidin-1-yl)-3,3-dimethyl-1-oxobutan-2-yl)carbamate]	15
COC(=O)N[C@H](C(=O)N1CC2(CCOCC2)CC1C(=O)N[C@@H](CCC(C)(F)F)C(=O)C(=O)NC1CC1)C(C)(C)C (single isomer, unassigned) [Example 28, Methyl ((S)-1-((R or S)-(3-(((S)-1-(cyclopropylamino)-6,6-difluoro-1,2-dioxoheptan-3-yl)carbamoyl)-8-oxa-2-azaspiro[4.5]decan-2-yl)-3,3-dimethyl-1-oxobutan-2-yl)carbamate]	297
COC(=O)N[C@H](C(=O)N1CC[C@]2(C[C@H]1C(=O)N[C@@H](CCC(C)(F)F)C(=O)C(=O)NC1CC1)CC2(F)F)C(C)(C)C [Example 94, methyl ((S)-1-((3S,5S)-5-(((S)-1-(cyclopropylamino)-6,6-difluoro-1,2-dioxoheptan-3-yl)carbamoyl)-1,1-difluoro-6-azaspiro[2.5]octan-6-yl)-3,3-dimethyl-1-oxobutan-2-yl)carbamate]	9
COC(=O)N[C@H](C(=O)N1CCC(OC(F)(F)F)CC1C(=O)N[C@@H](CCC(C)(F)F)C(=O)C(=O)NC1CC1)C(C)(C)C (single isomer, unassigned) [Example 112, methyl ((S)-1-((2S,4S or 2R,4R)-2-(((S)-1-(cyclopropylamino)-6,6-difluoro-1,2-dioxoheptan-3-yl)carbamoyl)-4-(trifluoromethoxy)piperidin-1-yl)-3,3-dimethyl-1-oxobutan-2-yl)carbamate]	146
COC(=O)N[C@H](C(=O)N1CC(C2CCC2)C[C@H]1C(=O)N[C@@H](CCC(C)(F)F)C(=O)C(=O)NC1CC1)C(C)(C)C (single isomer, unassigned) [Example 1, Methyl ((S)-1-((2S,4(S or R))-4-cyclobutyl-2-(((S)-1-(cyclopropylamino)-6,6-difluoro-1,2-dioxoheptan-3-yl)carbamoyl)pyrrolidin-1-yl)-3,3-dimethyl-1-oxobutan-2-yl)carbamate]	28
CCNC(=O)C(=O)[C@H](CCC(C)(F)F)NC(=O)[C@@H]1CC2(CCCCC2)CN1C(=O)[C@@H](NC(=O)OC)C(C)(C)C [Example 8, Methyl ((S)-1-((S)-3-(((S)-1-(ethylamino)-6,6-difluoro-1,2-dioxoheptan-3-yl)carbamoyl)-2-azaspiro[4.5]decan-2-yl)-3,3-dimethyl-1-oxobutan-2-yl)carbamate]	18
COC(=O)N[C@H](C(=O)N1CC2(CCCCC2)C[C@H]1C(=O)N[C@@H](CCC(C)(F)F)C(=O)C(=O)NCCN1CCOCC1)C(C)(C)C [Example 17, Methyl ((S)-1-((S)-3-(((S)-6,6-difluoro-1-((2-morpholinoethyl)amino)-1,2-dioxoheptan-3-yl)carbamoyl)-2-azaspiro[4.5]decan-2-yl)-3,3-dimethyl-1-oxobutan-2-yl)carbamate]	137
CNC(=O)C(=O)[C@H](CCC(C)(F)F)NC(=O)[C@@H]1CC2(CN1C(=O)[C@@H](NC(=O)OC)C(C)(C)C)CC(F)(F)C2 [Example 53, Methyl ((S)-1-((S)-7-(((S)-6,6-difluoro-1-(methylamino)-1,2-dioxoheptan-3-yl)carbamoyl)-2,2-difluoro-6-azaspiro[3.4]octan-6-yl)-3,3-dimethyl-1-oxobutan-2-yl)carbamate]	196
COC(=O)N[C@H](C(=O)N1CC2(C(F)(F)F)CCCC2C1C(=O)N[C@@H](CCC(C)(F)F)C(=O)C(=O)NC1CC1)C(C)(C)C (single isomer, unassigned) [Example 98, methyl ((S)-1-((1S,3aS,6aS or 1R,3aR,6aR)-1-(((S)-1-(cyclopropylamino)-6,6-difluoro-1,2-dioxoheptan-3-yl)carbamoyl)-3a-(trifluoromethyl)hexahydrocyclopenta[c]pyrrol-2(1H)-yl)-3,3-dimethyl-1-oxobutan-2-yl)carbamate]	77
COC(=O)N[C@H](C(=O)N1C[C@H](OC(F)F)C[C@H]1C(=O)N[C@@H](CCC(C)(F)F)C(=O)C(=O)NC1CC1)C(C)(C)C [Example 113, methyl ((S)-1-((2S,4R)-2-(((S)-1-(cyclopropylamino)-6,6-difluoro-1,2-dioxoheptan-3-yl)carbamoyl)-4-(difluoromethoxy)pyrrolidin-1-yl)-3,3-dimethyl-1-oxobutan-2-yl)carbamate]	46
CNC(=O)C(=O)[C@H](CCC(C)(F)F)NC(=O)[C@@H]1[C@H]2CCC[C@H]2CN1C(=O)[C@@H](NC(=O)OC)C(C)(C)O [Example 117, methyl ((S)-1-((1S,3aR,6aS)-1-(((S)-6,6-difluoro-1-(methylamino)-1,2-dioxoheptan-3-yl)carbamoyl)hexahydrocyclopenta[c]pyrrol-2(1H)-yl)-3-hydroxy-3-methyl-1-oxobutan-2-yl)carbamate]	14
CNC(=O)C(=O)[C@H](CCC(C)(F)F)NC(=O)[C@@H]1CC2(CCC2(F)F)CN1C(=O)[C@@H](NC(=O)OC)C(C)(C)C (single isomer, unassigned) [Example 103, methyl ((S)-1-((4(S or R),7S)-7-(((S)-6,6-difluoro-1-(methylamino)-1,2-dioxoheptan-3-yl)carbamoyl)-1,1-difluoro-6-azaspiro[3.4]octan-6-yl)-3,3-dimethyl-1-oxobutan-2-yl)carbamat]	32
CC(F)(F)CC[C@H](NC(=O)[C@@H]1[C@@H]2[C@H](CN1C(=O)[C@@H](NC(=O)OCc1ccccc1)C1CCCCC1)C21CCCCC1)C(=O)C(=O)NC1CC1 [Example 66, Benzyl ((S)-1-cyclohexyl-2-((1R,2S,5S)-2-(((S)-1-(cyclopropylamino)-6,6-difluoro-1,2-dioxoheptan-3-yl)carbamoyl)-3-azaspiro[bicyclo[3.1.0]hexane-6,1'-cyclohexan]-3-yl)-2-oxoethyl)carbamate]	9.9
COC(=O)N[C@H](C(=O)N1CCC2(CCCC2)CC1C(=O)N[C@@H](CCC(C)(F)F)C(=O)C(=O)NC1CC1)C(C)(C)C (single isomer, unassigned) [Example 34, Methyl ((S)-1-(R or S)-(7-(((S)-1-(cyclopropylamino)-6,6-difluoro-1,2-dioxoheptan-3-yl)carbamoyl)-8-azaspiro[4.5]decan-8-yl)-3,3-dimethyl-1-oxobutan-2-yl)carbamateazaspiro[4.5]decan-8-yl)-3,3-dimethyl-1-oxobutan-2-yl)carbamate]	7.4
CNC(=O)C(=O)[C@H](CCC(C)(F)F)NC(=O)[C@@H]1[C@H]2CCC(F)(F)[C@H]2CN1C(=O)[C@@H](NC(=O)OC)C(C)(C)C [Example 35, Methyl ((S)-1-((1S,3aR,6aS)-1-(((S)-6,6-difluoro-1-(methylamino)-1,2-dioxoheptan-3-yl)carbamoyl)-4,4-difluorohexahydrocyclopenta[c]pyrrol-2(1H)-yl)-3,3-dimethyl-1-oxobutan-2-yl)carbamate]	8.2
COC(=O)N[C@H](C(=O)N1C2CCC(CC2)[C@H]1C(=O)N[C@@H](CCC(C)(F)F)C(=O)C(=O)NC1CC1)C(C)(C)C [Example 59, Methyl ((S)-1-((S)-3-(((S)-1-(cyclopropylamino)-6,6-difluoro-1,2-dioxoheptan-3-yl)carbamoyl)-2-azabicyclo[2.2.2]octan-2-yl)-3,3-dimethyl-1-oxobutan-2-yl)carbamate]	37
COC(=O)N[C@H](C(=O)N1C[C@H]2[C@@H]([C@H]1C(=O)N[C@@H](CCC(C)(F)F)C(=O)C(=O)NC1CC1)C(C)(C)C2(C)C)C(C)(C)C [Example 36, Methyl ((S)-1-((1R,2S,5S)-2-(((S)-1-(cyclopropylamino)-6,6-difluoro-1,2-dioxoheptan-3-yl)carbamoyl)-6,6,7,7-tetramethyl-3-azabicyclo[3.2.0]heptan-3-yl)-3,3-dimethyl-1-oxobutan-2-yl)carbamate]	8.2
CNC(=O)C(=O)[C@H](CCC(C)(F)F)NC(=O)[C@@H]1[C@H]2CCC[C@H]2CN1C(=O)C(NC(=O)OC)C1CC(F)(F)C1 (single isomer, unassigned) [Example 116, methyl ((S or R)-2-((1S,3aR,6aS)-1-(((S)-6,6-difluoro-1-(methylamino)-1,2-dioxoheptan-3-yl)carbamoyl)hexahydrocyclopenta[c]pyrrol-2(1H)-yl)-1-(3,3-difluorocyclobutyl)-2-oxoethyl)carbamate]	16
COC(=O)N[C@@H](Cc1ccccc1)C(=O)N1CC[C@@H](C(F)(F)F)C[C@H]1C(=O)N[C@@H](CCC(C)(F)F)C(=O)C(=O)NC1CC1 [Example 68, Methyl ((S)-1-((2S,4R)-2-(((S)-1-(cyclopropylamino)-6,6-difluoro-1,2-dioxoheptan-3-yl)carbamoyl)-4-(trifluoromethyl)piperidin-1-yl)-1-oxo-3-phenylpropan-2-yl)carbamate]	28
CNC(=O)C(=O)[C@H](CCC(C)(F)F)NC(=O)C1CC(C(F)(F)F)CCN1C(=O)C(NC(=O)OC)C12CC(F)(C1)C2 (single isomer, unassigned) [Example 115, methyl ((R or S)-2-((2(S or R),4(R or S))-2-(((S)-6,6-difluoro-1-(methylamino)-1,2-dioxoheptan-3-yl)carbamoyl)-4-(trifluoromethyl)piperidin-1-yl)-1-(3-fluorobicyclo[1.1.1]pentan-1-yl)-2-oxoethyl)carbamate]	35
CNC(=O)C(=O)[C@H](CCC(C)(F)F)NC(=O)[C@@H]1C[C@@H](C(F)(F)F)CN1C(=O)[C@@H](NC(=O)OC)C(C)(C)C [Example 27, Methyl ((S)-1-((2S,4R)-2-(((S)-6,6-difluoro-1-(methylamino)-1,2-dioxoheptan-3-yl)carbamoyl)-4-(trifluoromethyl)pyrrolidin-1-yl)-3,3-dimethyl-1-oxobutan-2-yl)carbamate]	14
